# In patent publication US7238725B2, “Tricyclic compounds useful for the treatment of inflammatory and allergic disorders: process for their preparation and pharmaceutical compositions containing them” (Glenmark Pharmaceuticals Ltd., priority 2002, dated 2007):
# Where two headings read alike, the source gives them in different places.
# How the values were obtained:
# [1] = target: PDE4 enzyme; test: Inhibition of Phosphodiesterase Enzymes (PDE4), [3H]cAMP hydrolysis; assay type: biochemical
# Procedure: Inhibition of Phosphodiesterase Enzymes (PDE4)
# In this assay, PDE4 enzyme converts [^3H] cAMP to the corresponding [^3H] 5′-AMP in proportion to the amount of PDE4 present The [^3H] 5′-AMP then was quantitatively converted to free [^3H] adenosine and phosphate by the action of snake venom 5′-nucleotidase.
# The assay was performed with modification of the method of Thompson and Appleman (Biochemistry; 1971; 10; 311-316) and Schwartz and Passoneau (Proc. Natl. Acad. Sci. U.S.A. 1974; 71; 3844-3848), both references incorporated herein by reference in their entirety, at 34° C. In a 200 ul total reaction mixture, the reaction mixture contained 12.5 mM of Tris, 5 mM MgCl2, 1 μM cAMP (cold) and ^3H cAMP (0.1 uCi), (Amersham). […] Drug samples were then added in the reaction mixture (25 μl/tube). The assay was initiated by addition of enzyme mix (75 μl) and the mixture was incubated for 20 minutes at 34° C. The reaction was stopped by boiling the tubes for 2 mins at 100° C. in a water bath. After cooling on ice for 5 minutes and addition of 50 ug/reaction of 5′-nucleotidase snake venom from Crotalus atrox incubation was carried out again for 20 min. at 34° C. The unreacted substrate was separated from (^3H) Adenosine by addition of Dowex AG 1-X8 (Biorad Lab), (400 ul) which was prequilibrated (1:1:1) in water and ethanol. Reaction mixture was then thoroughly mixed, placed on ice for 15 minutes, vortexed and centrifuged at 14,000 r.p.m. for 2 mins. After centrifugation, a sample of the supernatant was taken and added in 24 well optiplates containing Scintillant (1 ml) and mixed well. The samples in the plates were then determined for radioactivity in a Top Counter and the PDE4 activity was estimated. PDE4 enzyme was present in quantities that yield <30% total hydrolysis of substrate (linear assay conditions).
# (§1) Results were expressed as percent inhibition (IC50) in nM concentrations. The IC50 values were determined from the concentration curves by nonlinear regression analysis.
# The IC50 value for the compound examined was determined from concentration-response curves in which varying range of concentrations were considered as shown in table 1
# [2] = test system: PDE4; test: Cell Based Assay for PDE4 Inhibition: cAMP elevation in whole U937 cells; settings: 1 μM PGE1, normalized over PGE1
# Procedure: Cell Based Assay for PDE4 Inhibition:
# cAMP elevation studies were conducted in whole U937 cells. U937 cells (ATCC) were grown in RPMI medium containing 10% FBS, 1% pen-strep solution, 1% L-glutamine for 48 hrs. On the day of assay, the cells were washed twice with plain RPM1 medium by centrifuging at 800 rpm for 5 mins. Cells were resuspended in plain RPM1 medium followed by cell number and viability assessment using a trypan blue stain. Cells (0.15-0.2 mio cells per well) were seeded in a 96 well microtitre plate and incubated with various drugs/DMSO vehicle at 37° C. for 15 min. cAMP generation was started by addition of 1 μM PGE1 for 15 mins. The incubation was terminated by addition of cell lysis buffer from cAMP estimation kit. Lysate was used for cAMP quantitatin by chemiluminescence method (DiscoveRX kits). cAMP values were normalized over PGE1. EC50 values were calculated from dose response curves by nonlinear regression analysis using PRISM software.
# [3] = target: PDE 1 (Ca2+/calmodulin-dependent); test: Activity against other Phosphodiesterase enzymes: PDE 1; assay type: biochemical
# Procedure: (§2) Additionally, activity of the compounds were tested against other Phosphodiesterase enzymes, namely, PDE 1 (Ca^2+/calmodulin-dependent), PDE 2 (cGP-stimulated), PDE 3 (cGP-inhibited), PDE 5 (cGP-specific) and PDE 6 (cGP-specific, photoreceptor).
# as §1
# [4] = target: PDE 2 (cGP-stimulated) (Homo sapiens, UniProt O00408); test: Activity against other Phosphodiesterase enzymes: PDE 2; assay type: biochemical; settings: read-out: IC50 values PDE2
# Procedure: as §2, §1
# [5] = target: PDE 3 (cGP-inhibited); test: Activity against other Phosphodiesterase enzymes: PDE 3; assay type: biochemical; settings: read-out: IC50 values PDE3
# Procedure: as §2, §1
# [6] = target: PDE 6 (cGP-specific, photoreceptor); test: Activity against other Phosphodiesterase enzymes: PDE 6; assay type: biochemical
# Procedure: as §2, §1
# [7] = PDE4 enzyme, 1 μM cAMP and 3H cAMP, 34° C., read-out: IC50
# Chain of PDE 2 (cGP-stimulated) (O00408 whole entry): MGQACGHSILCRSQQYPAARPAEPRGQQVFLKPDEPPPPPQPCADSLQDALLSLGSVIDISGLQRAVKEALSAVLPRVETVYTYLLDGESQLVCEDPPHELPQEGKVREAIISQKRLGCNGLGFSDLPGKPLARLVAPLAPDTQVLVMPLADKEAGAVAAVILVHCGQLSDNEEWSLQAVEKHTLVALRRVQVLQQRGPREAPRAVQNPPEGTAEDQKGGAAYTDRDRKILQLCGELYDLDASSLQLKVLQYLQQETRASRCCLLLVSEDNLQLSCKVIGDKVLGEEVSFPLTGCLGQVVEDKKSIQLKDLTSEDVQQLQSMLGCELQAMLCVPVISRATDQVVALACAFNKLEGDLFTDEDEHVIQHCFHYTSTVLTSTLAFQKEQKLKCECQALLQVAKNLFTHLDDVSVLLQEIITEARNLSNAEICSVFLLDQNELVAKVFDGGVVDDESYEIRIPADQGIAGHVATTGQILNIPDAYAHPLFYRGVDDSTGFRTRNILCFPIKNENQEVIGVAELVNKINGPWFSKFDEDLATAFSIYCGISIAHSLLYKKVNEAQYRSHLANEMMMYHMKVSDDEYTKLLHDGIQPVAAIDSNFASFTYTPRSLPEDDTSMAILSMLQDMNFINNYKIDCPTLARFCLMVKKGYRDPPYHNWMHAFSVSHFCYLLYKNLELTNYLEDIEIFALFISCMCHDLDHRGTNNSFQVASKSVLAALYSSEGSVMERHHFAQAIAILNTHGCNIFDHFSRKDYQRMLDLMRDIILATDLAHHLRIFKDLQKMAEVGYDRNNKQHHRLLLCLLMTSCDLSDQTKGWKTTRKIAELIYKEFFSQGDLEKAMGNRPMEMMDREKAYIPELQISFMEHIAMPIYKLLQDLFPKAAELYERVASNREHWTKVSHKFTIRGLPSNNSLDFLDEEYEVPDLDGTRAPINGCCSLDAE
SMILES,"IC50 [1, 7]",melting point,EC50 [2],further results
"Nc1ccc2oc3c(OC(F)F)ccc(C(=O)Nc4c(Cl)cncc4Cl)c3c2c1 [Example 59, N-(3,5-dichloropyrid-4-yl)-4-difluoromethoxy-8-amino-dibenzo[b,d]furan-1-carboxamide]",0.00447 µM,> 270 °C,0.0492 µM,–
"COc1ccc(C(=O)Nc2c(Cl)cncc2Cl)c2c1oc1ccc(N)cc12 [Example 55, N-(3,5-dichloropyrid-4-yl)-4-methoxy-8-amino-dibenzo[b,d]furan-1-carboxamide]",0.0012 µM,249 °C (dec.),0.0475 µM,–
"COc1ccc(C(=O)Nc2cc[n+]([O-])cc2)c2c1oc1ccccc12 [Example 4, N(pyrid-4-yl)-4-methoxy dibenzo[b,d]furan-1-carboxamide-N1-oxide]",0.0202 µM,–,> 0.3 µM,–
"COc1ccc(C(=O)Nc2c(Cl)cncc2Cl)c2c1oc1ccc(Br)cc12 [Example 42, N-(3,5-dichloropyrid-4-yl)-4-methoxy-8-bromo-dibenzo[b,d]furan-1-carboxamide]",0.00492 µM,308 °C,0.0442 µM,–
"COc1ccc(C(=O)Nc2c(Cl)cncc2Cl)c2c1oc1ccc(C(F)(F)F)cc12 [Example 9, N-(3,5-dichloropyrid-4-yl)-4-methoxy-8-trifluoromethyl dibenzo[b,d]furan-1-carboxamide]",0.00156 µM,–,0.0176 µM,–
"COc1ccc(C(=O)Nc2c(Cl)cncc2Cl)c2c1oc1ccc(C#N)cc12 [Example 57, N-(3,5dichloropyrid-4-yl)-4-methoxy-8-cyano-dibenzo[b,d]furan-1-carboxamide]",0.00174 µM,–,0.0737 µM,–
"O=C(Nc1c(Cl)cncc1Cl)c1ccc(OC(F)F)c2oc3ccc([N+](=O)[O-])cc3c12 [Example 58, N-(3,5-dichloropyrid-4-yl)-4-difluoromethoxy-8-nitro-dibenzo[b,d]furan-1-carboxamide]",0.01 µM,> 270 °C,0.148 µM,–
"COc1ccc(C(=O)Nc2c(Cl)c[n+]([O-])cc2Cl)c2c1oc1ccc(C(F)(F)F)cc12 [Example 10, N-(3,5-dichloropyrid-4-yl)-4-methoxy-8-trifluoromethyl dibenzo[b,d]furan-1-carboxamide-N1-oxide]",0.00168 µM,–,0.117 µM,–
"COc1ccc(C(=O)Nc2c(Cl)cncc2Cl)c2c1oc1ccc(Cl)cc12 [Example 41, N-(3,5-dichloropyrid-4-yl)-4-methoxy-8-chloro-dibenzo[b,d]furan-1-carboxamide]",0.000839 µM,300 °C,0.2 µM,–
"O=C(Nc1c(Cl)cncc1Cl)c1ccc(OC(F)F)c2oc3ccc(C(F)(F)F)cc3c12 [Example 12, N-(3,5-dichloropyrid-4-yl)-4-difluoromethoxy-8-trifluoromethyl dibenzo[b,d]furan-1-carboxamide]",0.00121 µM,228 °C,0.14 µM,–
"COc1ccc(S(=O)(=O)Nc2c(Cl)cncc2Cl)c2c1oc1ccccc12 [Example 54, N-(3,5-dichloropyrid-4-yl)-4-methoxy dibenzo[b,d]furan-1-sulfonamide]",–,242 to 244 °C,–,–

# Continued, in another order:
"IC50 [1, 7]",melting point,SMILES,EC50 [2],further results
0.111 µM,242 °C,"O=C(Nc1c(Cl)cncc1Cl)c1ccc(OCC2CC2)c2oc3ccccc3c12 [Example 25, N-(3,5-dichloropyrid-4-yl)-4-cyclopropylmethoxy dibenzo[b,d]furan-1-carboxamide]",–,–
0.026 µM,226 °C,"COc1ccc(C(=O)Nc2cccnc2)c2c1oc1ccccc12 [Example 7, N-(pyrid-3-yl)-4-methoxy dibenzo[b,d]furan-1-carboxamide]",–,–
0.00454 µM,304 °C (dec.),"COc1ccc(C(=O)Nc2c(Cl)cncc2Cl)c2c1oc1ccc(I)cc12 [Example 45, N-(3,5-dichloropyrid-4-yl)-4-methoxy-8-iodo-dibenzo[b,d]furan-1-carboxamide]",> 0.3 µM,–
0.00285 µM,–,"COc1ccc(C(=O)Nc2c(Cl)cncc2Cl)c2c1oc1ccc([N+](=O)[O-])cc12 [Example 38, N-(3,5-dichloropyrid-4-yl)-4-methoxy-8-nitro dibenzo[b,d]furan-1-carboxamide]",0.0879 µM,–
0.00254 µM,–,"O=C(Nc1c(Cl)c[n+]([O-])cc1Cl)c1ccc(OC(F)F)c2oc3ccc(C(F)(F)F)cc3c12 [Example 13, N-(3,5-dichloropyrid-4-yl)-4-difluoromethoxy-trifluoromethyl dibenzo[b,d]furan-1-carboxamide-N1-oxide]",0.128 µM,–
0.336 µM,192 °C,"COc1ccc(C(=O)Nc2cccnc2Cl)c2c1oc1ccccc12 [Example 5, N-(2-chloropyrid-3-yl)-4-methoxy dibenzo[b,d]furan-1-carboxamide]",–,–
0.0008 µM,302 °C,"COc1ccc(C(=O)Nc2c(Cl)cncc2Cl)c2c1oc1ccccc12 [Example 1, N-(3,5-dichloropyrid-4-yl)-4-methoxy dibenzo[b,d]furan-1-carboxamide]",0.0837 µM,"IC50 ([1]; Table 1, read-out: IC50 values PDE4): 0.0008 µM; % inhibition at 100 µM [3]: 44%; IC50 [4]: 69.1 µM; IC50 [5]: 61.8 µM; % inhibition at 100 µM [6]: 36%"
–,265 to 270 °C,"COc1ccc(C(=O)Nc2c(Cl)c[n+]([O-])cc2Cl)c2c1oc1ccccc12 [Example 2, N-(3,5-dichloropyrid-4-yl)-4-methoxy dibenzo[b,d]furan-1-carboxamide-N1-oxide]",0.0238 µM,–
0.00914 µM,–,"COc1ccc(C(=O)Nc2ccncc2)c2c1oc1ccc(C(F)(F)F)cc12 [Example 11, N(pyrid-4-yl)-4-methoxy-8-trifluoromethyl dibenzo[b,d]furan-1-carboxamide]",> 0.22 µM,–
0.00641 µM,228 °C,"O=C(Nc1ccncc1)c1ccc(OC(F)F)c2oc3ccc(C(F)(F)F)cc3c12 [Example 14, N-(pyrid-4-yl)-4-difluoromethoxy-8-trifluoromethyl dibenzo[b,d]furan-1-carboxamide]",–,–
0.00285 µM,–,"O=C(Nc1c(Cl)c[n+]([O-])cc1Cl)c1ccc(OC(F)F)c2oc3ccccc3c12 [Example 56, N-(3,5-dichloropyrid-4-yl)-4-difluoromethoxy-dibenzo[b,d]furan-1-carboxamide-N-oxide]",0.0493 µM,–
0.00254 µM,270 °C,"O=C(Nc1c(Cl)cncc1Cl)c1ccc(OC(F)F)c2oc3ccccc3c12 [Example 19, N-(3,5-dichloropyrid-4-yl)-4-difluoromethoxy dibenzo[b,d]furan-1-carboxamide]",0.0204 µM,–
